Laboratory results reported in patent US4687481A, “Transdermal drug delivery system” (priority 1986, dated 1987).
Where “and” joins values, the source holds several entries; their conditions need not be identical. Equal entries are not always repeated. Entries after “also recorded” stand apart in the source; their conditions may differ. Where two headings read alike, the source gives them in different places. Values belong to the molecule of their own block, whether it stands above or below them.

Columns and labels:
[1] = cited from earlier work; for FLUX (Feldman 1969) / FLUX (SCHAEFER 1979): human skin; for flux rates in comparison to the corticosterones: Table I
[2] = In vitro mouse skin permeation from patch, Franz diffusion cell; settings: for Rate of permeation: 2.4 sq. cm., estradiol value is a minimum not corrected for saturation effects, maximum flux expected nearly 2-3 times greater
Experimental: A typical sustained release for the release of levonorgestrel is: a 9.4 square centimeter of Johnson and Johnson Rayon™ First Aid Tape-Hypo-Allergenic--1 inch wide, 1.5 inch long for the impervious backing and to form the adhesive layer and a 2 square centimeter ID--2.25 square centimeter OD--2/3 mm thick teflon ring. […] Microspheres are prepared from the levonorgestrel and the poly-L(-)lactide as follows: Prepare a 2.5 percent wt/v solution of polyvinyl alcohol (PVA) #523 in one liter of distilled water; prepare a 15 percent wt/v solution of poly-L-(-)lactide, approx. 1 R.S.V. in 300 ml of reagent grade methylene chloride; mix 5 ml of the poly-L-(-)lactide solution, 10 ml methylene chloride and 5 grams of levonorgestrel to form a uniform slurry; take the 1 l of PVA solution and pour it into a 2 l stainless steel beaker. Stir at approx. 1000 RPM (1550×0.7) and heat at low temperature, (approx. 35° C.); add levonorgestrel slurry. Heat approx. 4 hours, then turn off heat and stirrer; wet sieve off the 45-106 um size fraction; and dry in vacuum oven at room temperature and recover the solid microspheres. Then 45 mg of these solid microspheres are mixed with 85 mg of Vaseline or a viscous vehicle (trademark of Chesebrough-Pond's, Inc.). The Teflon ring is placed in the center on the adhesive side of the tape and the Vaseline mixture is then spread to uniform thickness iside the Teflon ring. The porous membrane is then placed over the mixture of Vaseline to form a complete patch. An estradiol patch is similarly prepared using 70 mg of Vaseline with 38 mg of microspheres containing estradiol.
In Vitro mouse skin permeation studies were conducted with a 2.4 square centimeter patch which was placed in a 20 mm diameter water jacketted Franz diffusion cell mounted on a 9-cell Drive Unit/Mounting Assembly. The water jacket temperature of the cells was controlled by a bath and water circulator which is maintained at 37° C. This system is widely used in the pharmaceutical industry for measuring the permeability of percutaneous patches across animal and cadaver skins.
Release of each drug was determined as a function of time by analysis of aliquots of the contents of the reservoir in a Waters High Pressure Liquid Chromatograph (HPLC) using a u Bondpak C-18 radial pack column with a mobile phase of 60% ethanol in water. The steroids were measured in a uv detector at a wavelength of 280 nm for estradiol and 254 for levonorgestrel.
Pieces of full thickness abdominal skin were freshly excised from a 6 week old male nude mice and mounted individually on the Franz diffusion cell. Before use, the skins were washed three times in 200 ml normal saline to remove extraneous and other soluble material. The face membrane of the system was applied to the stratum corneum side of the skin. The skin permeation profile of each drug was followed by removing the liquid from the receptor compartment for assay at the appropriate intervals. The compartment was then filled with fresh saline and the permeation continued. Release of the drug was monitored in a liquid chromatograph (HPLC).

[3] = cited from earlier work; for oral effectiveness: "first pass" inactivation
[4] = Experimental: To obtain maximum flux rates aliquots of the reservoir were analyzed during a period of 8 hours on day 2, day 3, and day 7.
[5] = cited from earlier work
[6] = implantable drug delivery systems; cited from earlier work
[7] = cited from earlier work; remark: listed apart in the source

Molecule: C[C@]12C[C@H](O)[C@H]3[C@@H](CCC4=CC(=O)CC[C@@]43C)[C@@H]1CC[C@@H]2C(=O)CO [Corticosterone]
FLUX (Feldman 1969) [1]: 7.5 × 10^-12 MOLES/CM^2 HR

Molecule: C[C@]12CC[C@@H]3c4ccc(O)cc4CC[C@H]3[C@@H]1CC[C@@H]2O [Estradiol, 17β estradiol]
permeation rate ([2]; 2.4 square centimeter estradiol patch, per day, mass unit not given): 5
delivery across freshly excised mouse skin ([2]; 2.4 square centimeter patch (DermaPatch)): 5 micrograms/day
Minimum dose absorbed ([2]; Table 3, 2.4 sq. cm. patch): > 5.2 mcg./24 hr.
Rate of permeation ([2]; Table 3): > 0.09 mcg./sq. cm./hr.
mouse skin permeation ([2]; day 1): 6 Micrograms/2.4 sq. cm.
mouse skin permeation ([2]; day 2): 10 Micrograms/2.4 sq. cm.
mouse skin permeation ([2]; day 3): 16 Micrograms/2.4 sq. cm.
oral effectiveness [3]: limited oral effectiveness
Estimated size needed to deliver required dose [4]: 5
flux rates in comparison to the corticosterones [1]: fairly high
FLUX (Feldman 1969) [1]: 8.2 × 10^-11 MOLES/CM^2 HR
FLUX (SCHAEFER 1979) [1]: 5.8 × 10^-10 MOLES/CM^2 HR and 4.6 × 10^-10 MOLES/CM^2 HR

Molecule: C[C@]12CC[C@@H]3c4ccc(O)cc4CC[C@H]3[C@@H]1C[C@@H](O)[C@@H]2O [Estriol]
FLUX (SCHAEFER 1979) [1]: 7.8 × 10^-11 MOLES/CM^2 HR

Molecule: C[C@]12CCC(=O)C=C1CC[C@@H]1[C@@H]2[C@@H](O)C[C@@]2(C)[C@H]1CC[C@]2(O)C(=O)CO [Hydrocortisone]
increase in the penetration of hydrocortisone ([5]; modified skin, when the skin is occluded): tenfold increase
penetration of hydrocortisone when the skin is occluded ([5]; through modified skin, occluded): 10%
penetration of hydrocortisone before increase ([5]; through modified skin, starting value, not occluded): 1%
FLUX (Feldman 1969) [1]: 2.5 × 10^-11 MOLES/CM^2 HR

Minimum dose absorbed [2]: 43-160 mcg./24 hr.
delivery across freshly excised mouse skin [2]: 43 micrograms/day
Rate of permeation ([2]; Table 3): 0.75-2.8 mcg./sq. cm./hr.
average rate of release (maximum flux rates) ([2]; aliquots during 8 hours on day 2, day 3 and day 7, 2.4 square centimeter patch): 6.7 micrograms per hour
mouse skin permeation ([2]; day 1): about 25 Micrograms/2.4 sq. cm.
mouse skin permeation ([2]; day 2): 90 Micrograms/2.4 sq. cm.
mouse skin permeation ([2]; day 3): 140 Micrograms/2.4 sq. cm.
mouse skin permeation ([2]; day 7): 270 Micrograms/2.4 sq. cm.
mouse skin permeation ([2]; day 8): 375 Micrograms/2.4 sq. cm.
mouse skin permeation ([2]; day 9): 405 Micrograms/2.4 sq. cm.
mouse skin permeation ([2]; day 10): 570 Micrograms/2.4 sq. cm.
mouse skin permeation ([2]; day 11): 505 Micrograms/2.4 sq. cm.
mouse skin permeation ([2]; day 14): 590 Micrograms/2.4 sq. cm.
rate of skin permeation ([2]; during 24 hours, membrane area 2.4 square centimeters): approximately 43 ug/day
Estimated size needed to deliver required dose ([4]; dose required 20 (levonorgestrel) or 25 (estradiol) mcg./day): 0.5 sq. cm.
estimated delivery from a patch ([4]; patch surface area 0.5 square centimeters): 20 micrograms per day
estimated delivery from a patch ([4]; patch surface area 5 square centimeters): 2.5 milligrams per day
Molecule: C#C[C@]1(O)CC[C@H]2[C@@H]3CCC4=CC(=O)CC[C@@H]4[C@H]3CC[C@@]21CC [Levonorgestrel, levonorgestrel]
dose sufficient to prevent fertility [6]: 30 micrograms per day
skin permeation / release profile ([2]; abdominal skin of nude mouse): zero order release; also recorded: zero order rate
average rate of release (maximum flux rates) ([2]; from 6.7 micrograms per hour, days 2, 3 and 7): 160 micrograms per day/2.4 square/centimeters

Molecule: CC(=O)[C@H]1CC[C@H]2[C@@H]3CCC4=CC(=O)CC[C@]4(C)[C@H]3CC[C@]12C [Progesteone, progesterone]
accumulation in subcutaneous tissue and underlying muscle ([7]; in vivo): more pronounced with percutaneous than with subcutaneous administration
flux rates in comparison to the corticosterones [1]: fairly high
FLUX (Feldman 1969) [1]: 3.4 × 10^-11 MOLES/CM^2 HR

Molecule: C#C[C@]1(O)CC[C@H]2[C@@H]3CCc4cc(O)ccc4[C@H]3CC[C@@]21C [ethinylestradiol]
oral effectiveness [3]: active orally
inactivation by the liver and other tissues ([3]; oral): very low

Molecule: CN(Cc1cnc2nc(N)nc(N)c2n1)c1ccc(C(=O)N[C@@H](CCC(=O)O)C(=O)O)cc1 [methotrexate]
reduction of the duration of the reservoir ([7]; irritation increases epidermal turnover): ~50%

Molecule: CN1CCCC1c1cccnc1 (stereo not shown) [nicotine]
period maintained in the reservoir ([7]; compound which very rapidly penetrates and diffuses): 3 to 4 days

Molecule: estrogen
accumulation in subcutaneous tissue and underlying muscle ([7]; percutaneous versus subcutaneous administration): more pronounced with percutaneous than with subcutaneous administration
